Where two headings read alike, the source gives them in different places. Positions of bridges follow the written chain, without caps; N, C: chain ends. Non-standard residues stand in square brackets, D forms with d.
What was measured:
[1] = test system: recombinant luciferase-expressing HIV-1; assay type: cell-based; settings: for IC50: recombinant luciferase-expressing HIV-1, mean ± standard error, triplicate, read-out: IC50 viral entry
Experimental: The potency of C34 peptides in inhibiting viral infection and the HIV-1 infection inhibitory activity of the D-peptides were assayed using recombinant luciferase-expressing HIV-1 (Chen, B. K. et al., J. Virol., 68:654 (1994); Malashkevich, V. N., et al., Proc. Natl. Acad. Sci., USA, 95:9134 (1998)).
(§1) The apparent melting temperatures (Tm) were estimated from the thermal dependence of the CD signal at 222 nm. Inhibition of viral entry was measured in a cell-culture infection assay using recombinant luciferase-expressing HIV-1. Inhibition of cell-cell fusion was measured in a syncytium assay. The means and standard errors are from triplicate trials.

[2] = test system: syncytia formation between Chinese hamster ovary cell expressing HXB2 envelope and HeLa-CD4-LTR-Beta-gal cells
Experimental: In each instance, a blocking group (e.g., an acetyl group) was present at the N terminus and a CONH2 (amide) was present at the C-terminus.
Inhibition of cell/cell fusion (i.e., syncytia formation) was assayed by co-culturing Chinese hamster ovary cell expressing HXB2 envelope (K. Kozarsky, et al., J. Acquir. Immune. Defic. Syndr., 2:163 (1989) and the HeLa-CD4-LTR-Beta-gal cells (M. Emerman, NIH AIDS Reagent program) in the presence of varying concentration of peptide. When mixed, these cells form syncytia, or multi-nucleated cells, which express β-galactosidase. Approximately twenty hours after co-culturing the cells, the monolayers were stained with 5-bromo-4-chloro-3-indolyl-β-D-galactoside to visualize the syncytia. The syncytia are visualized with a microscope and counted manually (a syncytia is scored as a fused cell containing three or more nuclei). The IC50 was calculated from fitting the data to a Langmuir equation [y=k/(1+[peptide]/IC50)+x], where y=number of syncytia and k and x are scaling constants.

N36 peptide = biological target: T1, N36 peptide (Human immunodeficiency virus type 1 group M subtype B, UniProt P04578); assay type: physicochemical, HIV-1; settings: for Tm (apparent melting temperature) of N36/C34 complex: C34 peptide 10 μM + N36 10 μM, phosphate-buffered saline pH 7.0, CD signal at 222 nm; for mean residue ellipticity [θ]222 of N36/C34 complex: CD at 222 nm, 0° C., PBS pH 7.0
T1 construct: made in house; host or cells: chemical peptide synthesis
Experimental: CD measurements were performed in phosphate-buffered saline (50 mM sodium phosphate, 150 mM NaCl, pH 7.0) with an Aviv Model 62DS spectrometer as previously described (M. Lu, S. C. Blacklow, P. S. Kim, Nat. Struct. Biol., 2:1075 (1995)). The apparent melting temperature of each complex was estimated from the maximum of the first derivative of [θ]222 with respect to temperature.
as §1

[3] = test system: hydrophobic pocket of IQN17 (gp41); experiment: 1H NMR assay of binding to the IQN17 hydrophobic pocket; design: species or system HIV-1; settings: 1:1 complex with IQN17, 25° C., 100 mM NaCl, 50 mM sodium phosphate pH 7.5, D2O
Text: NMR experiments were used to assay the binding of each D-peptide to IQN17. The single tryptophan residue of IQN17 (denoted Trp-571) provides an excellent probe of specific binding to the hydrophobic pocket of gp41. […] To test a compound for binding to the gp41 pocket, two one-dimensional ^1H NMR measurements were made on samples in deuterated buffers. First, a reference (control) spectrum of IQN17 was taken, identifying the Trp571 chemical shifts in the unbound form. A second spectrum was acquired on a sample containing both IQN17 and the compound in question. An optional third spectrum of the D-peptide (or other small molecule, or mix of molecules) was also taken. ^1H NMR experiments were performed on a Bruker AMX 500 spectrometer. Data was processed in Felix 98.0 (MSI) on Silicon Graphics computers, and all spectra were referenced to DSS. All experiments were performed at 25° C. in 100 mM NaCl, 50 mM sodium phosphate (pH 7.5). All buffers used were >99.7% D2O, to remove overlapping resonances from exchangeable backbone and side chain protons. Solute concentrations ranged from 0.3-1.0 mM for individual peptides, 0.8-1.0 mM for 1:1 commplexes of IQN17 with each D-peptide.
Simple binding of two or more components is expected to result both in broader peaks (due to the increased size of the complex) and in changes in chemical shifts (due to the different chemical environments experienced by nuclei in free and bound forms). Specific binding to the hydrophobic pocket is indicated by a change in the Trp-571 chemical shifts, as well as by a broadening of peaks. Binding can also be indicated by similar changes in the chemical shifts and peak widths of the molecule (peptides and small organic molecules, for example) assayed. […] All IQN17/D-peptide complexes studied gave similar results, though varying in the degree of chemical shift dispersion (FIG. 9B). Thus, binding was indicated in all cases.
To confirm that the strongly upfield-shifted peaks all correspond to a single sidechain (almost certainly Trp-571), two-dimensional NMR (TOCSY) experiments were performed on each of the IQN17/D-peptide complexes. As expected, the TOCSY experiments indicate that in each complex, the strongly upfield-shifted resonances all belong to the same aromatic side chain, identified as a group of four scalar-coupled protons. For several of the complexes studied, NOESY experiments also indicate contact between this sidechain and other (unassigned) aromatic groups, as expected from the IQN17/D10pep1 structure. Not all of the potential NOE crosspeaks could be resolved, due to intense spectral overlap in the 6.8-7.6 ppm region. 2D NOESY and TOCSY experiments as described in J. Cavanaugh, W. J. Fairbrother, A. G. Palmer, N. J. Skelton, Protein NMR Spectroscopy: Principles and Practice (1996) were performed on samples of IQN17 and of each complex, with mixing times ranging between 30-90 ms (NOESY) and 30-70 ms (TOCSY). Spectral widths of 11,111 Hz and 5555 Hz were used in the acquisition (t2) and indirect (t1) dimensions, respectively. TOCSY experiments employed the DIPSI-2rc mixing sequence (J. Cavanaugh, M. Rance, J. Magn. Reson. Serv. A., 105:328 (1993)).

[4] = read-out: IC50 cell fusion, syncytium assay, mean ± standard error, triplicate

Compound | IC50 [1] | IC50 [2, 4] | Tm (apparent melting temperature) of N36/C34 complex (N36 peptide) | mean residue ellipticity [θ]222 of N36/C34 complex (N36 peptide) | further results
Ac-WMEFDREINNYTSLIHSLIEESQNQQEKNEQELL-NH2 [Trp^631→Phe] | 3.61 ± 0.8 nM | 1.6 ± 0.05 nM | 59 °C | −26.3 10^3 deg cm^2 dmol^−1 | 
Ac-WMELDREINNYTSLIHSLIEESQNQQEKNEQELL-NH2 [Trp^631→Leu] | 5.3 ± 1 nM | 3.2 ± 0.1 nM | 50 °C | −26.7 10^3 deg cm^2 dmol^−1 | 
Ac-GACSRSQPEWEWLCAA-CONH2 (Ac-G[dA][dC][dS][dR][dS][dQ][dP][dE][dW][dE][dW][dL][dC][dA][dA]-NH2; disulfide 3-14 (inferred)) [Peptide D10pep6] |  |  |  |  | binding to the hydrophobic pocket of IQN17 [3]: contact the pocket with very similar binding interfaces
Ac-GACDLKAKEWFWLCAA-CONH2 (Ac-G[dA][dC][dD][dL][dK][dA][dK][dE][dW][dF][dW][dL][dC][dA][dA]-NH2; disulfide 3-14 (inferred)) [Peptide D10pep4] |  |  |  |  | binding to the hydrophobic pocket of IQN17 [3]: contact the pocket with very similar binding interfaces
CC[C@H](NC(=O)[C@H](CCC(=O)O)NC(=O)[C@H](CCSC)NC(=O)[C@H](Cc1c[nH]c2ccccc12)NC(C)=O)C(=O)N[C@@H](CC(=O)O)C(=O)N[C@@H](CCCNC(=N)N)C(=O)N[C@@H](CCC(=O)O)C(=O)N[C@H](C(=O)N[C@@H](CC(N)=O)C(=O)N[C@@H](CC(N)=O)C(=O)N[C@@H](Cc1ccc(O)cc1)C(=O)N[C@H](C(=O)N[C@@H](CO)C(=O)N[C@@H](CC(C)C)C(=O)N[C@H](C(=O)N[C@@H](Cc1c[nH]cn1)C(=O)N[C@@H](CO)C(=O)N[C@@H](CC(C)C)C(=O)N[C@H](C(=O)N[C@@H](CCC(=O)O)C(=O)N[C@@H](CCC(=O)O)C(=O)N[C@@H](CO)C(=O)N[C@@H](CCC(N)=O)C(=O)N[C@@H](CC(N)=O)C(=O)N[C@@H](CCC(N)=O)C(=O)N[C@@H](CCC(N)=O)C(=O)N[C@@H](CCC(=O)O)C(=O)N[C@@H](CCCCN)C(=O)N[C@@H](CC(N)=O)C(=O)N[C@@H](CCC(=O)O)C(=O)N[C@@H](CCC(N)=O)C(=O)N[C@@H](CCC(=O)O)C(=O)N[C@@H](CC(C)C)C(=O)N[C@@H](CC(C)C)C(N)=O)[C@@H](C)CC)[C@@H](C)CC)[C@@H](C)O)[C@@H](C)CC [Trp^631→Abu] |  |  | 43 °C | −23.2 10^3 deg cm^2 dmol^−1 | 
Ac-WMEWDAEINNYTSLIHSLIEESQNQQEKNEQELL-NH2 [Arg^633→Ala] | 2.6 ± 0.89 nM | 0.76 ± 0.07 nM | 65 °C | −30.7 10^3 deg cm^2 dmol^−1 | effect of mutation on inhibitory activity of C34 ([1]; HIV-1 viral entry and syncytium assays, vs wildtype C34): little effect
Ac-WMEWDREANNYTSLIHSLIEESQNQQEKNEQELL-NH2 [Ile^635→Ala] | 4.1 ± 0.91 nM | 0.96 ± 0.12 nM | 55 °C | −25.9 10^3 deg cm^2 dmol^−1 | decrease in inhibitory activity relative to wildtype C34 ([1]; HIV-1 viral entry and syncytium assays): ~2 fold
Ac-WMEVDREINNYTSLIHSLIEESQNQQEKNEQELL-NH2 [Trp^631→Val] | 13 ± 12.8 nM | 4.5 ± 0.09 nM | 43 °C | −23.9 10^3 deg cm^2 dmol^−1 | 
Ac-KKKKGACELLGWEWAWLCAA-CONH2 (Ac-KKKKG[dA][dC][dE][dL][dL]G[dW][dE][dW][dA][dW][dL][dC][dA][dA]-NH2; disulfide 7-18 (inferred); not fully specified (residues 1, 2, 3, 4); printed as Ac-KKKKGACELLGWEWAWLCAA-CONH2) [Peptide D10pep5a] |  |  |  |  | IC50 for inhibition of syncytia formation relative to parent peptide without the added lysines ([2]; two additional N-terminal lysines vs parent D-peptide): approximately 2 fold
CC(=O)N[C@H](CCCCN)C(=O)N[C@H](CCCCN)C(=O)NCC(=O)N[C@H](C)C(=O)N[C@@H]1CSSC[C@H](C(=O)N[C@H](C)C(=O)N[C@H](C)C(N)=O)NC(=O)[C@@H](CC(C)C)NC(=O)[C@@H](Cc2c[nH]c3ccccc23)NC(=O)[C@@H](C)NC(=O)[C@@H](Cc2c[nH]c3ccccc23)NC(=O)[C@@H](CCC(=O)O)NC(=O)[C@@H](Cc2c[nH]c3ccccc23)NC(=O)CNC(=O)[C@@H](CC(C)C)NC(=O)[C@@H](CC(C)C)NC(=O)[C@@H](CCC(=O)O)NC1=O [Peptide D10pep5] |  |  |  |  | inhibition of infection of cells ([1]; infectivity assay): inhibit infection of cells; IC50 ([2]; read-out: IC50 syncytia formation, D-peptide, N-terminal acetyl, C-terminal amide): ~6000 nM
Ac-WMEGDREINNYTSLIHSLIEESQNQQEKNEQELL-NH2 [Trp^631→Gly] | 38 ± 6.1 nM | 25 ± 3.8 nM | 35 °C | 17.1 10^3 deg cm^2 dmol^−1 | 
CC[C@H](C)[C@H](NC(=O)[C@H](CC(C)C)NC(=O)[C@H](CO)NC(=O)[C@H](Cc1c[nH]cn1)NC(=O)[C@@H](NC(=O)[C@H](CC(C)C)NC(=O)[C@H](CO)NC(=O)[C@@H](NC(=O)[C@H](Cc1ccc(O)cc1)NC(=O)[C@H](CC(N)=O)NC(=O)[C@H](CC(N)=O)NC(=O)[C@@H](NC(=O)[C@H](CCC(=O)O)NC(=O)[C@H](CCCNC(=N)N)NC(=O)[C@H](CC(=O)O)NC(=O)[C@H](C)NC(=O)[C@H](CCC(=O)O)NC(=O)[C@H](CCSC)NC(=O)[C@H](Cc1c[nH]c2ccccc12)NC(C)=O)[C@@H](C)CC)[C@@H](C)O)[C@@H](C)CC)C(=O)N[C@@H](CCC(=O)O)C(=O)N[C@@H](CCC(=O)O)C(=O)N[C@@H](CO)C(=O)N[C@@H](CCC(N)=O)C(=O)N[C@@H](CC(N)=O)C(=O)N[C@@H](CCC(N)=O)C(=O)N[C@@H](CCC(N)=O)C(=O)N[C@@H](CCC(=O)O)C(=O)N[C@@H](CCCCN)C(=O)N[C@@H](CC(N)=O)C(=O)N[C@@H](CCC(=O)O)C(=O)N[C@@H](CCC(N)=O)C(=O)N[C@@H](CCC(=O)O)C(=O)N[C@@H](CC(C)C)C(=O)N[C@@H](CC(C)C)C(N)=O [Trp^631→Ala] | 40 ± 4.3 nM |  | 37 °C | −24.9 10^3 deg cm^2 dmol^−1 | 
